Assay results reported in patent publication US11998549B2, “Methods of treating a vascular leakage-associated disease or disorder” (UNITY HEALTH TORONTO, priority 2019, dated 2024).

Columns and labels:
Assay type in all cases: in vivo
[1] = tested on: LPS induced zebrafish sepsis model; test: Survival in LPS induced zebrafish sepsis model; settings: comparison of UNC0642 and A366, zebrafish larvae, 27 μg/ml LPS, 24 h
Method: (§1) An LPS induced zebrafish sepsis model which mimics the hallmarks of human sepsis was developed (Philip et al., 2017). Zebrafish show varied susceptibility and responsiveness to LPS from different bacterial strains. Exposure of zebrafish larvae at 3 days post-fertilization (dpf) to two types of LPS (LPS from Escherichia coli 0111:B4 (Sigma) at 100 μg/ml for 5-6 hrs; or LPS from Salmonella at 27 μg/ml for 24 hrs) were both effective in inducing tail fin swelling, increased ROS production, increased vascular leakage and increased mortality.
Survival analyses for zebrafish (wildtype) exposed to various concentrations of LPS (Escherichia coli 0111:B4; Sigma) was performed. 3 dpf larvae were exposed to LPS by immersion technique. Larvae were treated with 10, 25, 50, 125, 250, 500, 1000, 2500, 5000 or 10000 nM UNC0642 along with 100 μg/ml LPS (LPS was dissolved in eggwater), by static immersion at 28.5° C. for 24 h in a total volume of 2 mL per treatment. Control larvae were exposed to egg water. Survival numbers were recorded and EC50s calculated.
(§2) 3 dpf larvae were exposed to LPS by immersion technique. […] Control larvae were exposed to egg water. Survival numbers were recorded and EC50s calculated. The percentage (%) of embryos showing vascular leakage was also recorded and 1050s calculated.

[2] = tested on: LPS-induced vascular leakage; test: Vascular leakage (leaked red blood cells in tailfin) in LPS-treated zebrafish larvae; settings: comparison of UNC0642 and A366, zebrafish larvae, 27 μg/ml LPS, 24 h
Method: as §1
3 dpf Tg (flk1:GFP; gata-1:Dsred) double transgenic larvae were exposed to Vehicle, LPS (100 μg/ml) or LPS+1 μM UNC0642 by static immersion for 6 h at 28.5° C. to induce endothe-lial dysfunction and the resulting leakage of red blood cells. The larvae were then imaged using a Leica fluorescence microscope (Leica Microsystems, Wetzlar, Germany). Red blood cells that leaked out into the tailfin region were quantified.
as §2

zebrafish larvae = test: Toxicity in zebrafish larvae; settings: 3 dpf larvae, observed daily for 72 hours post incubation
Source text: Parameters of developmental toxicity (organ size and shape), cardiac toxicity (cardiac edema and heart rate), neuromuscular toxicity (touch response) and finally death were investigated.

SMILES: COc1cc2c(cc1OCCCN1CCCC1)N=C(N)C21CCC1 [A366, 5-Methoxy-6′-[3-(1-pyrrolidinyl)propoxy]spiro[cyclobutane-1,3′-[3H]indol]-2′-amine]
- Rescue of sepsis-associated mortality [1]: able to rescue
- Rescue of sepsis-associated vascular leakage [2]: able to rescue
- Concentration below which non-toxic to zebrafish embryos (zebrafish larvae): below 2.5 mM
